In paper PMC7710018, “Restoration of motor learning in a mouse model of Rett syndrome following long-term treatment with a novel small-molecule activator of TrkB” (Disease Models & Mechanisms, 2020):
Like-named read-outs stand apart in the source and are kept apart here.

Experiments:
Test in all cases: Cerep ExpresSProfile radioligand binding
[1] = test system: Ca2+ channel (L, verapamil site) (phenylalkylamine); conditions: 10 micromolar; antagonist radioligand
Experimental: (§1) To evaluate the relative binding specificity of LM22A-4 ([Massa et al., 2010]) and PTX-BD4-3, binding to a broad range of 55 pharmacologically relevant receptors, including numerous neurotransmitter and G-protein coupled receptors was assessed using standard radioligand competition binding assays (ExpressSProfile) performed by Cerep, Inc. (Seattle, WA, USA). In addition, ADME-Tox analysis was performed by Cerep, Inc. All experimental conditions are described on the Cerep website (www.cerep.fr). […]
(§2) Table S1. In vitro binding assays. An ExpresSProfile screen of PTX-BD4-3 binding to a panel of pharmacologically relevant receptors was conducted by Cerep, Inc.
(§3) (Eurofins Panlabs, MO). The results are expressed as percent inhibition of control specific binding obtained in the presence of 10 micromolar PTX-BD4-3. In this assay, values below 50% indicate no specific binding of PTX-BD4-3. The assay was negative for PTX-BD4-3 binding to all of the 55 receptors in the screen.
(§4) (also on this page, place not known: 2B 5‐HT 3 5‐HT 5a 5‐HT 6 5‐HT 7 (agonis t VPAC 1 V 1 Ca 2+ K V SK Ca Na + Cl ‐ 5‐HT Disease Models & Mechanisms: doi:10.1242/dmm.044685: Supplementary information Disease Models & Mechanisms • Supplementary information)

β1 (h) = molecular target: T1, β1 (h) (Homo sapiens, UniProt P08588); conditions: 10 micromolar; agonist radioligand; read-out: % Inhibition of Control Specific Binding 1st
T1 construct: purchased Cerep (ExpresSProfile)
Experimental: as §1, §2, §3, §4

5-HT transporter (h) = molecular target: T2, 5-HT transporter (h) (Homo sapiens, UniProt P31645); conditions: 10 micromolar, antagonist radioligand
T2 construct: Cerep, Inc. (contract screen)
Experimental: as §1, §2, §3, §4

[2] = molecular target: T3, norepinephrine transporter (h) (Homo sapiens, UniProt P23975); conditions: 10 micromolar, antagonist radioligand
T3 construct: Cerep, Inc. (contract screen)
Experimental: as §1, §2, §3, §4

5-HT3 (h) = molecular target: T4, 5-HT3 (h) (Homo sapiens, UniProt P46098); conditions: 10 micromolar, antagonist radioligand
T4 construct: Cerep, Inc. (contract screen)
T4 sequence (P46098 24-478): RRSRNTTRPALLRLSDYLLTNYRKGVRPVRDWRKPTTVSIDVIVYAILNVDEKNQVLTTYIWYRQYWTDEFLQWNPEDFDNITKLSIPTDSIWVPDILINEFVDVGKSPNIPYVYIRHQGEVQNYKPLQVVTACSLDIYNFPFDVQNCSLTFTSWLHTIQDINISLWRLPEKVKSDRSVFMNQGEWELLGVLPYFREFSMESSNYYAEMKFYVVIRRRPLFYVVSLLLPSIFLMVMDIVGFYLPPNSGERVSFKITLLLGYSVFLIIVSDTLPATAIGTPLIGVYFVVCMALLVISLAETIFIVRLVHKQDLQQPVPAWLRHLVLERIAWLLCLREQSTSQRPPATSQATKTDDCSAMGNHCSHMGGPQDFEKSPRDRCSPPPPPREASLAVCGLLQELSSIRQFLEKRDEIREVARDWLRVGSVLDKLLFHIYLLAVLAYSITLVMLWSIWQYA
Experimental: as §1, §2, §3, §4

Na+ channel (site 2) = conditions: 10 micromolar; antagonist radioligand
Experimental: as §1, §2, §3, §4

NTS1 (NT1) (h) = molecular target: T5, NTS1 (NT1) (h) (Homo sapiens, UniProt P30989); conditions: 10 micromolar, agonist radioligand
T5 construct: purchased Cerep (ExpresSProfile)
Experimental: as §1, §2, §3, §4

M2 (h) = molecular target: T6, M2 (h) (Homo sapiens, UniProt P08172); conditions: 10 micromolar; antagonist radioligand; read-out: % Inhibition of Control Specific Binding 1st
T6 construct: purchased Cerep (ExpresSProfile)
Experimental: as §1, §2, §3, §4

H2 (h) = molecular target: T7, H2 (h) (Homo sapiens, UniProt P25021); conditions: 10 micromolar; antagonist radioligand; read-out: % Inhibition of Control Specific Binding 1st
T7 construct: purchased Cerep (ExpresSProfile)
Experimental: as §1, §2, §3, §4

sst (non-selective) = conditions: 10 micromolar; agonist radioligand
Experimental: as §1, §2, §3, §4

NK3 (h) = molecular target: T8, NK3 (h) (Homo sapiens, UniProt P29371); conditions: 10 micromolar; antagonist radioligand; read-out: % Inhibition of Control Specific Binding 2nd
T8 construct: purchased Cerep (ExpresSProfile)
Experimental: as §1, §2, §3, §4

Cl- channel (GABA-gated) = conditions: 10 micromolar; antagonist radioligand
Experimental: as §1, §2, §3, §4

α1 (non-selective) = conditions: 10 micromolar; antagonist radioligand
Experimental: as §1, §2, §3, §4

dopamine transporter (h) = molecular target: T9, dopamine transporter (h) (Homo sapiens, UniProt Q01959); conditions: 10 micromolar, antagonist radioligand
T9 construct: Cerep, Inc. (contract screen)
Experimental: as §1, §2, §3, §4

KV channel = conditions: 10 micromolar; antagonist radioligand
Experimental: as §1, §2, §3, §4

α2 (non-selective) = conditions: 10 micromolar; antagonist radioligand
Experimental: as §1, §2, §3, §4

NOP (ORL1) (h) = molecular target: T10, NOP (ORL1) (h) (Homo sapiens, UniProt P41146); conditions: 10 micromolar, agonist radioligand
T10 construct: purchased Cerep (ExpresSProfile)
Experimental: as §1, §2, §3, §4

5-HT7 (h) = molecular target: T11, 5-HT7 (h) (Homo sapiens, UniProt P34969); conditions: 10 micromolar, agonist radioligand
T11 construct: Cerep, Inc. (contract screen)
Experimental: as §1, §2, §3, §4

δ2 (DOP) (h) = molecular target: T12, δ2 (DOP) (h) (Homo sapiens, UniProt P41143); conditions: 10 micromolar; agonist radioligand; read-out: % Inhibition of Control Specific Binding 2nd
T12 construct: purchased Cerep (ExpresSProfile)
Experimental: as §1, §2, §3, §4

[3] = read-out: % Inhibition of Control Specific Binding 1st
[4] = read-out: % Inhibition of Control Specific Binding 2nd
[5] = read-out: % Inhibition of Control Specific Binding Mean

T2 sequence (P31645 whole entry): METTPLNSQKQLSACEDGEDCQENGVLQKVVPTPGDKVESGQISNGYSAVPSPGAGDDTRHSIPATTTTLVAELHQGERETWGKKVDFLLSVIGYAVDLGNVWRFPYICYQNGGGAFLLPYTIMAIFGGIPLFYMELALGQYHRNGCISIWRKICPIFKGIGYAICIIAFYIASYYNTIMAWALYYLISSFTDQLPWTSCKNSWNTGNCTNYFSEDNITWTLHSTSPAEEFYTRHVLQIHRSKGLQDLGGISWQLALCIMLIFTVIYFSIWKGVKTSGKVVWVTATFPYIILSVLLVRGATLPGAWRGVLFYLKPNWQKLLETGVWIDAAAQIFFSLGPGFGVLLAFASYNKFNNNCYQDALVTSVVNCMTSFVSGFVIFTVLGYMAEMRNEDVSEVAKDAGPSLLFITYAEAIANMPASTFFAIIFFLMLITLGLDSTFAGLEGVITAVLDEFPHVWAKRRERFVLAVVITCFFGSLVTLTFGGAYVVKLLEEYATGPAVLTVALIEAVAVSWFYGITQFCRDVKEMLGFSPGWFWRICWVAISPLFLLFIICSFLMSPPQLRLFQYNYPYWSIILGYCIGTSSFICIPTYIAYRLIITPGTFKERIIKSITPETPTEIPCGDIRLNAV
T9 sequence (Q01959 whole entry): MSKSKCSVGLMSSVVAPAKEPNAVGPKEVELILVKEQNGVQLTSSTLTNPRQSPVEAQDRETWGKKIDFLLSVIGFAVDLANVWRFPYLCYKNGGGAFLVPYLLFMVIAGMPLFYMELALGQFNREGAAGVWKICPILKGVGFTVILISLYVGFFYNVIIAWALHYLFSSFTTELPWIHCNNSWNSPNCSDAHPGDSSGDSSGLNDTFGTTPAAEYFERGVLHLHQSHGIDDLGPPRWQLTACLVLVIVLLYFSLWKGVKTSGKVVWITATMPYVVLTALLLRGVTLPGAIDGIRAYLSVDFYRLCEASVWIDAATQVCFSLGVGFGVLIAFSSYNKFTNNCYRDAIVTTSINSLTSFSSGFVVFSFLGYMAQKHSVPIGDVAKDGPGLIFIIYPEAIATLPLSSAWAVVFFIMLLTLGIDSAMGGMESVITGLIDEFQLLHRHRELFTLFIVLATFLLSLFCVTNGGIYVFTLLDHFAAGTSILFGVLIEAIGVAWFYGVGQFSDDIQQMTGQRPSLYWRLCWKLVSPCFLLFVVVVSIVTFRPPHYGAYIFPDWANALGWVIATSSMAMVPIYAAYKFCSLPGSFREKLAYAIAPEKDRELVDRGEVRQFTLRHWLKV
T11 sequence (P34969 whole entry): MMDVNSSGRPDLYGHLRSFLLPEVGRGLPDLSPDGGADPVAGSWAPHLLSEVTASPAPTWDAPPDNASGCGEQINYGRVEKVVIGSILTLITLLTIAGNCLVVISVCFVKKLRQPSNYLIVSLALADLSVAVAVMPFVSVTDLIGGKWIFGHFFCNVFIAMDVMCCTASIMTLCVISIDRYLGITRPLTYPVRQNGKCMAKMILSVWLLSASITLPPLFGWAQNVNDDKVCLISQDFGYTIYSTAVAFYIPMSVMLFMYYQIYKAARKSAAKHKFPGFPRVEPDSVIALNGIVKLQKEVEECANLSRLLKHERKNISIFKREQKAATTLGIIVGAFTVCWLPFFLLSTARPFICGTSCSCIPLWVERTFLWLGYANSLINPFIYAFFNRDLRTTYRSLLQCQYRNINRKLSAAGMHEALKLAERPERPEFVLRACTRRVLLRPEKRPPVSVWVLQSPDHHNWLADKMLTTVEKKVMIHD
T3 sequence (P23975 whole entry): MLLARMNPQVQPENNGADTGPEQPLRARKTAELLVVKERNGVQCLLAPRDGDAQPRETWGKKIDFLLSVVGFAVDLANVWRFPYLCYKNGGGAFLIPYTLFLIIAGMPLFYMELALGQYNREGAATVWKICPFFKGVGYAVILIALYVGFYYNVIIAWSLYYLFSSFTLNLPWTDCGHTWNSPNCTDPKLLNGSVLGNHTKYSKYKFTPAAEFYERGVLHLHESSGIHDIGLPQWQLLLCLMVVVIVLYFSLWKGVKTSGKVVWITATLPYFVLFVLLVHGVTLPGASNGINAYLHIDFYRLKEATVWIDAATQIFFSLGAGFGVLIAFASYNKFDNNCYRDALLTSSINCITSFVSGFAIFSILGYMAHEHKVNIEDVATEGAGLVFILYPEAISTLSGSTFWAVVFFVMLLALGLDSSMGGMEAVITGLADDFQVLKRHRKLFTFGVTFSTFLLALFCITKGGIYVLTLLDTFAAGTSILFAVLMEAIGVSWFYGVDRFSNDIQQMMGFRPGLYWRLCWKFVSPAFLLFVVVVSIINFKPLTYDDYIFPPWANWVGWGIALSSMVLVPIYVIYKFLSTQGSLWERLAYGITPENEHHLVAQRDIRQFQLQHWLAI
T5 sequence (P30989 whole entry): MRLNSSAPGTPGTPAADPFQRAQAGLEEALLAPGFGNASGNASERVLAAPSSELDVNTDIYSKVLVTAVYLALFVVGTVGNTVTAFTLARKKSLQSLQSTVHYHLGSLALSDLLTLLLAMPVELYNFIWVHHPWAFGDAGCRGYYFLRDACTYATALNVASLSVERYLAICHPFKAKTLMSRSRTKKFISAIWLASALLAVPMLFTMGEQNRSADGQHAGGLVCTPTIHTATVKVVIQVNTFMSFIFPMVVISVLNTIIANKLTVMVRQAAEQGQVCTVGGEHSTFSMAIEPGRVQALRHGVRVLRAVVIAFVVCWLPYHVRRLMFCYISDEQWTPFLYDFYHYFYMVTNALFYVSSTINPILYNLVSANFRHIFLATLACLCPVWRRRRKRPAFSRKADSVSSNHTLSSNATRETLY
T10 sequence (P41146 whole entry): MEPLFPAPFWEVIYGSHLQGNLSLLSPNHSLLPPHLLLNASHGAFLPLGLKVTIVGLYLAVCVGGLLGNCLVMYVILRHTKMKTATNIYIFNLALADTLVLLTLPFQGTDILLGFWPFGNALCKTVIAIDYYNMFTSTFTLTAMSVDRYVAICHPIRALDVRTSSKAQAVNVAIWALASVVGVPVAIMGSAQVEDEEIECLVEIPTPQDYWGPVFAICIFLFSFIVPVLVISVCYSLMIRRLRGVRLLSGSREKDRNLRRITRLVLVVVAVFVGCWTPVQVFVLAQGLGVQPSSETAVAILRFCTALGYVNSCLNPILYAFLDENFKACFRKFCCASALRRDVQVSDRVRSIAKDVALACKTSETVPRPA
T12 sequence (P41143 whole entry): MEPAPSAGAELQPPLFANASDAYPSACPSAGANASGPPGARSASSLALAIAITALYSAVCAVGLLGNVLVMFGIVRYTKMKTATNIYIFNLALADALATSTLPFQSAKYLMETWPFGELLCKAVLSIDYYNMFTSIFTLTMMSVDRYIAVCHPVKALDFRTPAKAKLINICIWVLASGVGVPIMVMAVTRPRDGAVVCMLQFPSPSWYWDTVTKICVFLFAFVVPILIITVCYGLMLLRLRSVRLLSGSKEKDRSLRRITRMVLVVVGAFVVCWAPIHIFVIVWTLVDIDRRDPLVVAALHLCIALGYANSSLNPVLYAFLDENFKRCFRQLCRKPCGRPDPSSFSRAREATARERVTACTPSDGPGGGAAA
T8 sequence (P29371 whole entry): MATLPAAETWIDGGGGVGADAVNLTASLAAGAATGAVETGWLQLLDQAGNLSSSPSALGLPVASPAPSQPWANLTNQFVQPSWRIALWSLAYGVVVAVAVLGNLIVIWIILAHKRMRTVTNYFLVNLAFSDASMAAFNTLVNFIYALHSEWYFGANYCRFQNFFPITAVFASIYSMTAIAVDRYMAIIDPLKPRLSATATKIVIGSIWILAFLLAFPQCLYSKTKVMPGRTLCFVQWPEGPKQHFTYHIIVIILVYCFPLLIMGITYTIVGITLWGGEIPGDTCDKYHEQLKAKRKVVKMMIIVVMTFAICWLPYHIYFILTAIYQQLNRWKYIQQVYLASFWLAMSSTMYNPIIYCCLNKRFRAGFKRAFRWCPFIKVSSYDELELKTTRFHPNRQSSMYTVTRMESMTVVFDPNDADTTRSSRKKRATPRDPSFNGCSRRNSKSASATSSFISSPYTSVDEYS
T7 sequence (P25021 whole entry): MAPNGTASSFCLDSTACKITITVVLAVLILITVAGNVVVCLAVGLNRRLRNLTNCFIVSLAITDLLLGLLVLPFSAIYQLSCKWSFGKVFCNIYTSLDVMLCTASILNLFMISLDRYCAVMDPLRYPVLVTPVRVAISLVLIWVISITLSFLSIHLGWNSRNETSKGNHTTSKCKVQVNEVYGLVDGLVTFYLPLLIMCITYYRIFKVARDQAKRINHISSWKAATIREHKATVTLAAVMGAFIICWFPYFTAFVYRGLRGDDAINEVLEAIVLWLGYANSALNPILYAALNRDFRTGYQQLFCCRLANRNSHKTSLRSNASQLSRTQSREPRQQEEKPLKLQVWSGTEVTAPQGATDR
T6 sequence (P08172 whole entry): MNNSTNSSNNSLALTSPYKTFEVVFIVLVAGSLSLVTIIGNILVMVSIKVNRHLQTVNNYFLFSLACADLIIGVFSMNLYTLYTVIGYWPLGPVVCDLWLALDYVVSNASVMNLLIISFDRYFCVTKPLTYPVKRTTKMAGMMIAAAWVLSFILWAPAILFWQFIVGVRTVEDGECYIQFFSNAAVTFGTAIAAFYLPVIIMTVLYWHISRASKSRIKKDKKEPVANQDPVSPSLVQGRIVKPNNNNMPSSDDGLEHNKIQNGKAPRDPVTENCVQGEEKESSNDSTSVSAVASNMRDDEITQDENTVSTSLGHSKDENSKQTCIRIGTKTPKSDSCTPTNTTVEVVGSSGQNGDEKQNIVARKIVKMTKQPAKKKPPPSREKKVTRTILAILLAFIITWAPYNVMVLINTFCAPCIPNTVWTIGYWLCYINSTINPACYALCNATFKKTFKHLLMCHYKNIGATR

In the case of `COCCN(C)C(=O)c1cc(C(=O)N(C)CCOC)cc(C(=O)N(C)CCOC)c1` [PTX-BD4-3, benzene-1,3,5-tricarboxylic acid tris-[(2-methoxy-ethyl)-methyl-amide]], the “% Inhibition of Control Specific Binding 1st” value [1] is reported as 0%, the inhibition at 10 µM (β1 (h)) is reported as 3.7% and the inhibition at 10 µM (5-HT transporter (h); [3]) is reported as 16.3%. It also gave an inhibition at 10 µM (5-HT transporter (h); [4]) of 5.5%, an inhibition at 10 µM (5-HT transporter (h); [5]) of 10.9% and an inhibition at 10 µM [2, 3] of 5.1%. It also gave an inhibition at 10 µM [2, 4] of 1.1%, an inhibition at 10 µM [2, 5] of 3.1% and an inhibition at 10 µM (5-HT3 (h); [3]) of 6.9%. For the same compound, the inhibition at 10 µM (5-HT3 (h); [4]) was 13.4%, the inhibition at 10 µM (5-HT3 (h); [5]) was 10.1% and the “% Inhibition of Control Specific Binding 1st” value (Na+ channel (site 2)) was 0.6%. For the same compound, the “% Inhibition of Control Specific Binding 2nd” value (Na+ channel (site 2)) was 11.7%, the “% Inhibition of Control Specific Binding Mean” value (Na+ channel (site 2)) was 6.1% and the inhibition at 10 µM (NTS1 (NT1) (h); [3]) was 11.2%. It also gave an inhibition at 10 µM (NTS1 (NT1) (h); [4]) of 2.6%, an inhibition at 10 µM (NTS1 (NT1) (h); [5]) of 6.9% and an inhibition at 10 µM (M2 (h)) of 6.3%. For the same compound, the inhibition at 10 µM (H2 (h)) was 2.8%, the “% Inhibition of Control Specific Binding 1st” value (sst (non-selective)) was 5.7% and the “% Inhibition of Control Specific Binding Mean” value (sst (non-selective)) was 0.3%. The inhibition at 10 µM (NK3 (h)) was 0.4%, the “% Inhibition of Control Specific Binding 1st” value (Cl- channel (GABA-gated)) was 2.7% and the “% Inhibition of Control Specific Binding 1st” value (α1 (non-selective)) was 0.9%. The inhibition at 10 µM (dopamine transporter (h); [3]) was 2.2%, the inhibition at 10 µM (dopamine transporter (h); [4]) was 0.9% and the inhibition at 10 µM (dopamine transporter (h); [5]) was 1.6%. For the same compound, the “% Inhibition of Control Specific Binding 1st” value (KV channel) was 6.4%, the “% Inhibition of Control Specific Binding 1st” value (α2 (non-selective)) was 1.8% and the “% Inhibition of Control Specific Binding 2nd” value (α2 (non-selective)) was 4.7%. The “% Inhibition of Control Specific Binding Mean” value (α2 (non-selective)) was 3.2%, the inhibition at 10 µM (NOP (ORL1) (h); [4]) was 6.3% and the inhibition at 10 µM (NOP (ORL1) (h); [5]) was 0.1%. The inhibition at 10 µM (5-HT7 (h); [3]) was 8.1%, the inhibition at 10 µM (5-HT7 (h); [4]) was 14.7% and the inhibition at 10 µM (5-HT7 (h); [5]) was 11.4%. For the same compound, the inhibition at 10 µM (δ2 (DOP) (h)) was 1.9%.
